According to ChEMBL document CHEMBL1158574, “Trichodermaketones A-D and 7-O-methylkoninginin D from the marine fungus Trichoderma koningii” (2010):

tested on: Staphylococcus aureus; assay: Antibacterial activity against methicillin-resistant Staphylococcus aureus clinical isolate measured after overnight incubation at 37 degC; format: functional

Structure (SMILES)	MIC [µg/mL]
CCCCCC/C=C/[C@H]1CC2=C(O1)[C@H](O)CCC2=O [TRICHODERMAKETONE D]	> 100
CCCCCC[C@H](O)[C@@H]1C[C@@H](OC)C2=C(O1)[C@H](O)CCC2=O	> 100
CCCCCC[C@@H]1O[C@@H]2C3=C(O[C@@H]2[C@@H]1O)[C@H](O)CCC3=O [TRICHODERMAKETONE A]	> 100
CCCCCC[C@H]1O[C@H]2C3=C(O[C@H]2[C@H]1O)[C@H](O)CCC3=O [TRICHODERMAKETONE B]	> 100
CCCCCC/C=C/[C@@H]1CC2=C(O1)[C@H](O)CCC2=O [TRICHODERMAKETONE C]	> 100

tested on: Candida albicans; assay: Antimicrobial activity against Candida albicans SC5314 measured after overnight incubation at 35 degC by broth microdilution assay; format: functional

Structure (SMILES)	MIC [µg/mL]
CCCCCC[C@@H]1O[C@@H]2C3=C(O[C@@H]2[C@@H]1O)[C@H](O)CCC3=O [TRICHODERMAKETONE A]	> 125
